Source: patent US20240246941A1, “SUBSTITUTED 4-(3-AMINOPROP-1-YL)AMINOQUINOLINE ANALOGS AS MODULATORS OF MELANOMA-ASSOCIATED ANTIGEN 11 UBIQUITIN LIGASE” (ST. JUDE CHILDREN'S RESEARCH HOSPITAL, INC., priority 2020, published 2024)

target: MAGE-A11:PCF11 (Homo sapiens (Human), UniProt P43364); experiment: TR-FRET single point screening at 15 μM; format: binding; parameters: unit not given here; conditions: single point TR-FRET screening at 15 μM against MAGE-A11:PCF11
Method in brief: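 Single-point screen at 15 μM (0.25% DMSO) measuring disruption of GST-MAGEA11 (5 nM) binding to FAM-PCF11_4 peptide (200 nM) detected by Tb-anti-GST (5 nM). Buffer 50 mM Tris pH 7.5, 20 mM MgCl2, 0.1 mg/ml BSA, 1 mM DTT; 90 min at ~25 °C; 520/490 nm ratio converted to % inhibition versus controls.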

Sequence of MAGE-A11:PCF11 (P43364 218-429): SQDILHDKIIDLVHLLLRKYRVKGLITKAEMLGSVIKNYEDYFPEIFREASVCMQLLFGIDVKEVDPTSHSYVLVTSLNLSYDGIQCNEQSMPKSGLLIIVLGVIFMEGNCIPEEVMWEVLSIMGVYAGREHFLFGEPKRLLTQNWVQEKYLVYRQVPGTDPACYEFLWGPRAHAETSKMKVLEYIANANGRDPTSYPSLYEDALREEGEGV

Structure (SMILES) | TR-FRET signal
Cc1ccc(S(=O)(=O)c2cnc3ccccc3c2N2CCN(c3ccc(F)cc3)CC2)cc1C [SJ000117062] | −54.86
COc1ccc2nc3cc(Cl)ccc3c(NCCCNCc3ccc(Cl)cc3Cl)c2c1 [SJ000522958] | −97.83
Clc1ccc2c(NCCCCN(Cc3ccccc3)CC3CC3)ccnc2c1 [SJ000357485] | 18.34
CCCN(CCCNc1c2ccc(Cl)cc2nc2ccc(OC)cc12)Cc1nccs1 [SJ000522988] | −117.5
CCC(CC)CN1CCC(Nc2ccnc3cc(Cl)ccc23)CC1 [SJ000523086] | 9.754
CCc1ccc2ncc(S(=O)(=O)c3ccccc3)c(N3CCN(C)CC3)c2c1 [SJ000083946] | −6.249
COc1ccc2nc3cc(Cl)ccc3c(NCCCNCCC(C)(C)C)c2c1 [SJ000520994] | −456.3
Cc1csc(CN(CCCCNc2ccnc3cc(Cl)ccc23)Cc2ccccc2)n1 [SJ000520456] | −12.86
CCN1CCN(c2c(S(=O)(=O)c3ccc(C)cc3)cnc3ccc(C)cc23)CC1 [SJ000083961] | 0.2213
CCCN(CCCNc1c2ccc(Cl)cc2nc2ccc(OC)cc12)Cc1ccccc1F [SJ000520944] | −118.6
COc1ccc(N2CCN(c3c(S(=O)(=O)c4ccc(C)c(C)c4)cnc4ccc(F)cc34)CC2)cc1 [SJ000117073] | −13.26
CCCCCN(CCCCC)CC(=O)Nc1c2c(nc3ccccc13)CCC2 [SJ000487033] | −68.07

same assay, conditions: single point TR-FRET screening of quinoline compounds against MAGE-A11:PCF11; 15 μM

Structure (SMILES) | TR-FRET signal
CCCN(CCCNc1ccnc2cc(C(F)(F)F)ccc12)Cc1ccccc1[N+](=O)[O-] [SJ000523071] | −7.745
CCCN(CCCNc1ccnc2cc(Cl)ccc12)Cc1nccn1C [SJ000523002] | 6.351
COc1ccc(CN(CCCNc2ccnc3cc(Cl)ccc23)Cc2ccccc2)cc1OC [SJ000522742] | −0.5383
FC(F)(F)c1ccc2c(NCCCNCc3ccc[nH]3)ccnc2c1 [SJ000361105] | 41.69
CCCNCCCNc1ccnc2cc(Cl)ccc12 [SJ000361119] | 9.785
CCCN(CCCNc1ccnc2cc(Cl)ccc12)Cc1ccc(OC(F)(F)F)cc1 [SJ000522999] | 22.74
CCCN(CCCNc1ccnc2cc(C(F)(F)F)ccc12)Cc1cc(OC)ccc1F [SJ000520480] | 11.96
CCCN(CCCNc1c2ccc(Cl)cc2nc2ccc(OC)cc12)Cc1cc(OC)ccc1F [SJ000522965] | −81.24
CCCN(CCCNc1ccnc2cc(Cl)ccc12)Cc1c(F)c(F)c(F)c(F)c1F [SJ000522748] | 19.87
CCCN(CCCNc1ccnc2cc(Cl)ccc12)Cc1c[nH]c(C)n1 [SJ000522990] | 4.828
Clc1ccc2c(NCCCN(Cc3ccccc3)Cc3ccc4ccccc4c3)ccnc2c1 [SJ000361182] | 22.05
COc1ccc(F)c(CN(CCCNc2ccnc3cc(Cl)ccc23)Cc2ccccc2)c1 [SJ000520445] | 4.762
CC(C)(C)CCNCCCNc1ccnc2cc(C(F)(F)F)ccc12 [SJ000521053] | 27.36
c1coc(CNCCCNc2ccnc3cc(-c4ccc5c(c4)OCO5)ccc23)c1 [SJ000311290] | 30.79
CCCN(CCCNc1c2ccc(Cl)cc2nc2ccc(OC)cc12)CCCSC [SJ000522730] | 0.7867
Clc1ccc2c(NCCCNCc3ccco3)ccnc2c1 [SJ000000502] | 6.349
CCCN(CCCNc1ccnc2cc(C(F)(F)F)ccc12)Cc1ccc(C)s1 [SJ000361258] | 19.08
CCCN(CCCNc1ccnc2cc(C(F)(F)F)ccc12)Cc1cccnc1Br [SJ000575180] | 5.164
Clc1ccc2c(NCCCN(Cc3ccccc3)Cc3cccc4c3OCO4)ccnc2c1 [SJ000357598] | 3.49
CCCN(CCCNc1ccnc2cc(Cl)ccc12)Cc1ccccc1 [SJ000357431] | 19.14
CCCN(CCCNc1ccnc2cc(Cl)ccc12)Cc1ncc[nH]1 [SJ000523008] | 4.165
